Measurements from US20220073883A1, “COMPOSITIONS AND METHODS FOR GENERATION OF HEART FIELD-SPECIFIC PROGENITOR CELLS” (The Johns Hopkins University, priority 2018, published 2022).
“Also recorded” adds a separate entry of the source.

Tests used:
Assay type in all cases: cell-based, mouse
[1] = system: ESC-derived cardiac spheroids (Hcn4-GFP; Tbx1-Cre; Ai9); assay: heart field specification: Hcn4-GFP+ and Tbx1-Cre, RFP+ CPCs in cardiac spheroids by FACS at day 5.5; conditions: for Bmp4-mediated induction of RFP+ cells (SHF) / Bmp4-mediated induction of GFP+ cells (FHF): in combination with Bmp4 (1.25 ng/ml), Noggin 100 ng/ml, dorsomorphin, K2288, DMH1 100 nM; for Bmp4-mediated induction of RFP+ cells (SHF): IWP-2 0.5 μM
From the text: Next, an embryonic stem cell (ESC) line (ESCHcn4-GFP; Tbx1-Cre Ai9) was established from the mice to determine if heart field specification can be recapitulated in a PSC system. It was hypothesized that a 3D multicellular system would better resemble heart field development in vivo, as early development is a highly dynamic process that involves tissue-tissue interactions between multiple cell types. Since CPCs are specified during mid-late gastrulation 7, 8, multicellular 3D spheroids were generated with the PSCs and treated them with various concentrations of Activin A and Bmp4 to determine whether induction of the early mesoderm influences heart field specification (FIGS. 1C and 1D).
IPA utilizes an input gene list and a curated database of literature-derived pathways to infer which canonical pathways are most significant to the input data set. The analysis was focused on pathways related to ‘organism growth and development’. […] The effect of Bmp signals was evaluated during heart field specification. In order to minimize the possibility of influencing heart field cells after induction, all of the data were analyzed within 12 hs after the appearance of GFP^+/RFP^+ cells.
(§1) Mouse ESCs and human iPSCs were maintained and differentiated as previously described^5, 43, 68 Briefly, mESCs were maintained on gelatin-coated dishes in maintenance medium (Glasgow minimum essential medium supplemented with 10% fetal bovine serum and […] Chir99021 and 1 μM PD98059 or 1000 U/ml ESGRO (Millipore, Billerica, Mass.), Glutamax, sodium pyruvate, MEM non-essential amino acids (Thermo Fisher Scientific). For spheroid formation and differentiation, mouse ESCs were plated in IMDM/Ham's F12 (Cellgro) (3:1) supplemented with N2, B27, penicillin/streptomycin, 2 mM GlutaMAX, 0.05% BSA, 5 ng/ml L-ascorbic acid (Sigma-Aldrich) and α-monothioglycerol (MTG; Sigma-Aldrich) at a final density of 100,000 cells/ml to allow spheroid formation. After 48 h spheroids were collected and transferred to ultra-low attachment plastic surface and induced for 40 hours with Activin A, Bmp4, Wnt3A, Wnt5A, Wnt11 (R&D Systems) alone or in combination. Human iPSCs were maintained in Geltrex-coated T25 flasks using Essential 8 medium. For spheroid formation and differentiation, hiPSCs were plated in RPMI plus B27 minus insulin with Bmp4 and CHIR99021 and incubated for 48 h. After 48 h media was changed to RPMI plus B27 minus insulin. The hiPSC line used in this study was developed by Dr. Linzhao Cheng, the Johns Hopkins University, and had was generated from a de-identified patient using an approved IRB protocol.
Mouse embryos (E7.75) were dissected using forceps under a stereomicroscope (Zeiss) and regions of interest were dissociated and harvested using TrypLE. Embryoid bodies (EBs) and cells were dissociated and harvested using TrypLE. Single-cells were analyzed for RFP/GFP expression or sorted using a SH800 Cell sorter (Sony Biotechnologies). Live cells were analyzed for RFP and GFP expression and stained with antibodies targeting for the presence of appropriate markers. […] Data was analyzed using FlowJo software.

[2] = system: ESC-derived cardiac spheroids; assay: qPCR of FHF (tbx5, hcn4) and SHF (tbx1, fgf10) markers in treated spheroids; conditions: in combination with Bmp4 (1.25 ng/ml), Wnts 100 ng/ml, dorsomorphin, K2288, DMH1 100 nM; for expression of SHF markers (tbx1, fgf10): IWP-2 0.5 μM
Description: To investigate the crosstalk between Bmp and Wnt signals, the spheroids were treated with Bmp4 and Wnts in combinations and analyzed expression levels of FHF (tbx5, hcn4) and SHF (tbx1, fgf10) markers.
as §1
RNA isolation was performed using either RNeasy Micro Kit (Cat #74004, Qiagen) or […]® PicoPure® RNA Isolation Kit following the manufacturer's instructions, and cDNA was generated using the high-capacity cDNA reverse transcription kit (Applied Biosystems). qPCR reactions were performed using the Taqman (Applied Biosystems) or Sybr Select qPCR mix (Thermo Fisher) with indicated primers. Gene expression levels were normalized to Gapdh. For the clonal cell-fate analysis, single Isl1-Cre RFP+, Cxcr4− and Isl1-Cre RFP^+, Cxcr4^+ cells were sorted at day 5.5 into 384-well plates and allowed to grow and differentiate for 7 days. […] RNA was isolated from 24 wells with colonies from Cxcr4− and Cxcr4+ sorted cells, respectively. Ct values<30 were considered positive. All samples were also analyzed for gapdh to exclude false-positive results.

canonical Wnt activity = assay: Topflash luciferase assay; conditions: in combination with Bmp4 (1.25 ng/ml); 88 h of differentiation
Description: To test this, canonical Wnt activity was measured with its readout Topflash.
For Tbx1 and Tbx5 knockdown experiments, Tbx1 and Tbx5 ON-TARGETplus SMARTpool siRNA or scrambled siRNA (Dharmacon/Thermo Fisher Scientic) was used at 5 nM for cell transfection. Cells were transfected with Lipofectamine LTX (Life Technologies) in single-cell suspensions. For TOP-flash luciferase assays, mESCs were transfected with Topflash constructs and Renilla constructs and analyzed as previously described 5.

[3] = increasing levels of the factor, day 5.5

Molecule	Bmp4-mediated induction of RFP+ cells (SHF) [1]	Bmp4-mediated induction of GFP+ cells (FHF) [1]	expression of SHF markers (tbx1, fgf10) [2]	expression of FHF markers (tbx5, hcn4) [2]	topflash / Wnt activity (canonical Wnt activity)	induction of GFP+ cells (FHF) [1, 3]	induction of RFP+ cells (SHF) [1, 3]
CC(C)Oc1ccc(-c2cnc3c(-c4ccnc5ccccc45)cnn3c2)cc1 [DMH1, reference compound]	without significantly affecting	suppressed	without significantly affecting	suppressed	without significantly affecting	–	–
Cc1ccc2nc(NC(=O)CSc3nc4c(c(=O)n3-c3ccccc3)SCC4)sc2c1 [IWP-2, reference compound]	abolished	–	suppressed	–	–	–	–
COc1cc(-c2cc(-c3cccc(O)c3)cnc2N)cc(OC)c1OC [K2288, reference compound]	without significantly affecting	suppressed	without significantly affecting	suppressed	without significantly affecting	–	–
c1cc(-c2cnn3cc(-c4ccc(OCCN5CCCCC5)cc4)cnc23)ccn1 [dorsomorphin, reference compound]	–	–	–	–	no effect	–	–
Wnt11: Wnt protein (noncanonical) (protein, UniProt O96014 25-354, looked up) Protein Wnt-11: IKWLALSKTPSALALNQTQHCKQLEGLVSAQVQLCRSNLELMHTVVHAAREVMKACRRAFADMRWNCSSIELAPNYLLDLERGTRESAFVYALSAAAISHAIARACTSGDLPGCSCGPVPGEPPGPGNRWGGCADNLSYGLLMGAKFSDAPMKVKKTGSQANKLMRLHNSEVGRQALRASLEMKCKCHGVSGSCSIRTCWKGLQELQDVAADLKTRYLSATKVVHRPMGTRKHLVPKDLDIRPVKDSELVYLQSSPDFCMKNEKVGSHGTQDRQCNKTSNGSDSCDLMCCGRGYNPYTDRVVERCHCKYHWCCYVTCRRCERTVERYVCK	–	–	overall reduction	overall reduction	–	–	–
Wnt5A: Wnt protein (noncanonical) (protein, UniProt P41221 62-380, looked up) Protein Wnt-5a: IIGAQPLCSQLAGLSQGQKKLCHLYQDHMQYIGEGAKTGIKECQYQFRHRRWNCSTVDNTSVFGRVMQIGSRETAFTYAVSAAGVVNAMSRACREGELSTCGCSRAARPKDLPRDWLWGGCGDNIDYGYRFAKEFVDARERERIHAKGSYESARILMNLHNNEAGRRTVYNLADVACKCHGVSGSCSLKTCWLQLADFRKVGDALKEKYDSAAAMRLNSRGKLVQVNSRFNSPTTQDLVYIDPSPDYCVRNESTGSLGTQGRLCNKTSEGMDGCELMCCGRGYDQFKTVQTERCHCKFHWCCYVKCKKCTEIVDQFVCK	–	–	overall reduction	overall reduction	–	–	–
Noggin: blocks Bmps from binding their receptors (protein, UniProt Q13253 28-232, looked up) Noggin: QHYLHIRPAPSDNLPLVDLIEHPDPIFDPKEKDLNETLLRSLLGGHYDPGFMATSPPEDRPGGGGGAAGGAEDLAELDQLLRQRPSGAMPSEIKGLEFSEGLAQGKKQRLSKKLRRKLQMWLWSQTFCPVLYAWNDLGSRFWPRYVKVGSCFSKRSCSVPEGMVCKPSKSVHLTVLRWRCQRRGGQRCGWIPIQYPIISECKCSC	abolished	abolished	–	–	markedly reduced; also recorded: inhibition	–	–
Wnt3A: Wnt protein (canonical) (protein, UniProt P56704 19-352, looked up) Protein Wnt-3a: SYPIWWSLAVGPQYSSLGSQPILCASIPGLVPKQLRFCRNYVEIMPSVAEGIKIGIQECQHQFRGRRWNCTTVHDSLAIFGPVLDKATRESAFVHAIASAGVAFAVTRSCAEGTAAICGCSSRHQGSPGKGWKWGGCSEDIEFGGMVSREFADARENRPDARSAMNRHNNEAGRQAIASHMHLKCKCHGLSGSCEVKTCWWSQPDFRAIGDFLKDKYDSASEMVVEKHRESRGWVETLRPRYTYFKVPTERDLVYYEASPNFCEPNPETGSFGTRDRTCNVSSHGIDGCDLLCCGRGHNARAERRREKCRCVFHWCCYVSCQECTRVYDVHTCK	–	–	further increase	reduction	further increased	did not affect	increased numbers
